# Experimental data reported in ChEMBL document CHEMBL3774317, “Design and synthesis of novel tamoxifen analogues that avoid CYP2D6 metabolism” (Eur J Med Chem, 2016).
# Legend:
# Type in all cases: functional
# [1] = test system: EKVX; assay: Cytotoxicity against human EKVX cells assessed as cell growth at 10^-5 M after 48 hrs by SRB assay; conditions: read-out: Activity
# [2] = Cytotoxicity against human OVCAR3 cells assessed as cell growth at 10^-4 M after 48 hrs by SRB assay; conditions: OVCAR-3, 48 h, read-out: Activity
# [3] = test system: M14; assay: Cytotoxicity against human M14 cells assessed as cell growth at 10^-7 M after 48 hrs by SRB assay; conditions: M14, 48 h, read-out: Activity
# [4] = test system: SK-MEL-28; assay: Cytotoxicity against human SK-MEL-28 cells assessed as cell growth at 10^-6 M after 48 hrs by SRB assay; conditions: SK-MEL-28, 48 h, read-out: Activity
# [5] = Cytotoxicity against human UO31 cells assessed as cell growth at 10^-4 M after 48 hrs by SRB assay; conditions: UO-31, 48 h, read-out: Activity
# [6] = test system: NCI-H460; assay: Cytotoxicity against human NCI-H460 cells assessed as cell growth at 10^-6 M after 48 hrs by SRB assay; conditions: NCI-H460, 48 h, read-out: Activity
# [7] = Cytotoxicity against human UACC257 cells assessed as cell growth at 10^-7 M after 48 hrs by SRB assay; conditions: UACC-257, 48 h, read-out: Activity
# [8] = Cytotoxicity against human MOLT4 cells assessed as cell growth at 10^-6 M after 48 hrs by SRB assay; conditions: MOLT-4, 48 h, read-out: Activity
# [9] = test system: A549; assay: Cytotoxicity against human A549 cells assessed as cell growth at 10^-6 M after 48 hrs by SRB assay; conditions: A549, 48 h, read-out: Activity
# [10] = Cytotoxicity against human MOLT4 cells assessed as cell growth at 10^-8 M after 48 hrs by SRB assay; conditions: MOLT-4, 48 h, read-out: Activity
# [11] = Cytotoxicity against human BT549 cells assessed as cell growth at 10^-5 M after 48 hrs by SRB assay; conditions: BT-549, 48 h, read-out: Activity
# [12] = test system: U-251; assay: Cytotoxicity against human U251 cells assessed as cell growth at 10^-4 M after 48 hrs by SRB assay; conditions: U-251, 48 h, read-out: Activity
# [13] = Cytotoxicity against human SF295 cells assessed as cell growth at 10^-6 M after 48 hrs by SRB assay; conditions: SF-295, 48 h, read-out: Activity
# [14] = test system: MDA-MB-231; assay: Cytotoxicity against human MDA-MB-231 cells assessed as cell growth at 10^-8 M after 48 hrs by SRB assay; conditions: MDA-MB-231, 48 h, read-out: Activity
# [15] = Cytotoxicity against human OVCAR3 cells assessed as cell growth at 10^-6 M after 48 hrs by SRB assay; conditions: OVCAR-3, 48 h, read-out: Activity
# [16] = test system: KM12; assay: Cytotoxicity against human KM12 cells assessed as cell growth at 10^-7 M after 48 hrs by SRB assay; conditions: KM12, 48 h, read-out: Activity
# [17] = Cytotoxicity against human HCT15 cells assessed as cell growth at 10^-5 M after 48 hrs by SRB assay; conditions: HCT-15, 48 h, read-out: Activity
# [18] = Cytotoxicity against human RPMI8226 cells assessed as cell growth at 10^-5 M after 48 hrs by SRB assay; conditions: RPMI-8226, 48 h, read-out: Activity
# [19] = Cytotoxicity against human HOP92 cells assessed as cell growth at 10^-7 M after 48 hrs by SRB assay; conditions: HOP-92, 48 h, read-out: Activity
# [20] = Cytotoxicity against human PC3 cells assessed as cell growth at 10^-6 M after 48 hrs by SRB assay; conditions: PC-3, 48 h, read-out: Activity
# [21] = Cytotoxicity against human PC3 cells assessed as cell growth at 10^-4 M after 48 hrs by SRB assay; conditions: PC-3, 48 h, read-out: Activity
# [22] = test system: CCRF-CEM; assay: Cytotoxicity against human CCRF-CEM cells assessed as cell growth at 10^-4 M after 48 hrs by SRB assay; conditions: read-out: Activity
# [23] = Cytotoxicity against human HCC2998 cells assessed as cell growth at 10^-4 M after 48 hrs by SRB assay; conditions: HCC 2998, 48 h, read-out: Activity
# [24] = test system: 786-0; assay: Cytotoxicity against human 786-0 cells assessed as cell growth at 10^-6 M after 48 hrs by SRB assay; conditions: 786-0, 48 h, read-out: Activity
# [25] = Cytotoxicity against human IGROV1 cells assessed as cell growth at 0.5 uM after 48 hrs by SRB assay; conditions: IGROV-1, 48 h, read-out: Activity
# [26] = Cytotoxicity against human Hs 578T cells assessed as cell growth at 5 uM after 48 hrs by SRB assay; conditions: read-out: Activity
# [27] = Cytotoxicity against human SNB75 cells assessed as cell growth at 5 uM after 48 hrs by SRB assay; conditions: SNB-75, 48 h, read-out: Activity
# [28] = test system: NCI-H322M; assay: Cytotoxicity against human NCI-H322M cells assessed as cell growth at 50 uM after 48 hrs by SRB assay; conditions: read-out: Activity
# [29] = Cytotoxicity against human LOXIMVI cells assessed as cell growth at 5 nM after 48 hrs by SRB assay; conditions: LOX IMVI, read-out: Activity
# [30] = test system: SR; assay: Cytotoxicity against human SR cells assessed as cell growth at 5 uM after 48 hrs by SRB assay; conditions: read-out: Activity
# [31] = Cytotoxicity against human LOXIMVI cells assessed as cell growth at 50 uM after 48 hrs by SRB assay; conditions: LOX IMVI, read-out: Activity
# [32] = test system: ACHN; assay: Cytotoxicity against human ACHN cells assessed as cell growth at 0.5 uM after 48 hrs by SRB assay; conditions: read-out: Activity
# [33] = Cytotoxicity against human HCT116 cells assessed as cell growth at 5 nM after 48 hrs by SRB assay; conditions: HCT-116, 48 h, read-out: Activity
# [34] = test system: NCI-H522; assay: Cytotoxicity against human NCI-H522 cells assessed as cell growth at 5 nM after 48 hrs by SRB assay; conditions: NCI-H522, 48 h, read-out: Activity
# [35] = Cytotoxicity against human HCT15 cells assessed as cell growth at 5 nM after 48 hrs by SRB assay; conditions: HCT-15, 48 h, read-out: Activity
# [36] = test system: K562; assay: Cytotoxicity against human K562 cells assessed as cell growth at 0.5 uM after 48 hrs by SRB assay; conditions: K562, 48 h, read-out: Activity
# [37] = test system: KM12; assay: Cytotoxicity against human KM12 cells assessed as cell growth at 5 nM after 48 hrs by SRB assay; conditions: KM12, 48 h, read-out: Activity
# [38] = Cytotoxicity against human OVCAR4 cells assessed as cell growth at 0.5 uM after 48 hrs by SRB assay; conditions: OVCAR-4, 48 h, read-out: Activity
# [39] = test system: SK-MEL-28; assay: Cytotoxicity against human SK-MEL-28 cells assessed as cell growth at 0.5 uM after 48 hrs by SRB assay; conditions: SK-MEL-28, 48 h, read-out: Activity
# [40] = test system: MDA-MB-231; assay: Cytotoxicity against human MDA-MB-231 cells assessed as cell growth at 50 uM after 48 hrs by SRB assay; conditions: MDA-MB-231, 48 h, read-out: Activity
# [41] = Cytotoxicity against human OVCAR3 cells assessed as cell growth at 5 uM after 48 hrs by SRB assay; conditions: OVCAR-3, 48 h, read-out: Activity
smiles,measurement,setting,value
C/C(=C(/c1ccc(O)cc1)c1ccc(OCCN2CCCC2)cc1)c1ccccc1,growth at 10 µM,[1],6%
same,growth at 100 µM,[2],-100%
same,growth at 0.1 µM,[3],93%
same,growth at 1 µM,[4],85%
same,growth at 100 µM,[5],-92%
same,growth at 1 µM,[6],102%
same,growth at 0.1 µM,[7],102%
same,growth at 1 µM,[8],92%
same,growth at 1 µM,[9],106%
same,growth at 0.01 µM,[10],102%
same,growth at 10 µM,[11],24%
same,growth at 100 µM,[12],-98%
same,growth at 1 µM,[13],94%
same,growth at 0.01 µM,[14],110%
same,growth at 1 µM,[15],97%
same,growth at 0.1 µM,[16],100%
same,growth at 10 µM,[17],-41%
same,growth at 10 µM,[18],-19%
same,growth at 0.1 µM,[19],102%
same,growth at 1 µM,[20],103%
same,growth at 100 µM,[21],-96%
same,growth at 100 µM,[22],-71%
same,growth at 100 µM,[23],-80%
same,growth at 1 µM,[24],89%
CCCCCCCCCC(=O)Oc1ccc(/C(=C(/C)c2ccccc2)c2ccc(OCCN3CCCC3)cc2)cc1,growth at 0.5 µM,[25],72%
same,growth at 5 µM,[26],77%
same,growth at 5 µM,[27],69%
same,growth at 50 µM,[28],-86%
same,growth at 0.005 µM,[29],97%
same,growth at 5 µM,[30],90%
same,growth at 50 µM,[31],-100%
same,growth at 0.5 µM,[32],88%
same,growth at 0.005 µM,[33],98%
same,growth at 0.005 µM,[34],101%
same,growth at 0.005 µM,[35],98%
same,growth at 0.5 µM,[36],34%
same,growth at 0.005 µM,[37],101%
same,growth at 0.5 µM,[38],68%
same,growth at 0.5 µM,[39],19%
same,growth at 50 µM,[40],-67%
same,growth at 5 µM,[41],86%
